Assays:
DENV-1 = conditions: cited from earlier work
DENV-2 = conditions: cited from earlier work
DENV-3 = conditions: cited from earlier work
TBEV = assay: microbe, parasite or virus in culture; type: cell-based, Tick-borne encephalitis virus strain Absettarov; conditions: Tick-borne encephalitis virus, PEK, read-out: TBEV EC50
WNV = assay: microbe, parasite or virus in culture; type: cell-based, West Nile virus strain Strix nebulosa-12; conditions: West Nile virus, Vero, read-out: WNV EC50
in vitro [1] = conditions: pig
in vitro [2] = conditions: pig; remark: listed apart in the source
in vitro [3] = conditions: African green monkey
in vitro [4] = conditions: African green monkey; remark: listed apart in the source
YFV = assay: microbe, parasite or virus in culture; type: cell-based, yellow fever virus strain 17D; conditions: Yellow fever virus, read-out: YFV EC50

CC(C)CCN1C(=O)[C@]2(CC(=O)Nc3c2nnn3[C@@H](C)c2ccc(Cl)cc2)c2cc(Cl)ccc21 [JMX0254]
EC50 (DENV-1): 0.78 µM
EC50 (DENV-2): 0.16 µM
EC50 (DENV-3): 0.035 µM

O=[N+]([O-])c1ccccc1S(=O)(=O)N(C1=NOC2(CCCCCCC2)C1)S(=O)(=O)c1ccccc1[N+](=O)[O-] [4h, 2-Nitro-N-((2-nitrophenyl)sulfonyl)-N-(1-oxa-2-azaspiro[4.7]dodec-2-en-3-yl)benzenesulfonamide]
EC50 (TBEV): 20 ± 11 µM
EC50 (WNV): 7.8 ± 1 µM
melting point: 155 to 157 °C
acute and chronic cytotoxicity in Vero cells (in words) (Vero cells): only acute toxic
CC50 (in vitro [1]): > 50 µM
CC50 (in vitro [2]): > 50 µM

O=[N+]([O-])c1ccc(S(=O)(=O)N(C2=NOC3(CCCCCCC3)C2)S(=O)(=O)c2ccc([N+](=O)[O-])cc2)cc1 [4i, 4-Nitro-N-((4-nitrophenyl)sulfonyl)-N-(1-oxa-2-azaspiro[4.7]dodec-2-en-3-yl)benzenesulfonamide]
EC50 (TBEV): 2 ± 0.5 µM
EC50 (WNV): 5.3 ± 1 µM
melting point: 178 to 180 °C
acute and chronic cytotoxicity in Vero cells (in words) (Vero cells): both acute and chronic cytotoxicity
CC50 (in vitro [1]): > 50 µM
CC50 (in vitro [2]): > 50 µM

O=S(=O)(NC1=NOC2(CCCCCCC2)C1)c1ccc2ccccc2c1 [3j]
EC50 (TBEV): 20 ± 11 µM
EC50 (WNV): 20.3 ± 0.3 µM
acute and chronic cytotoxicity in Vero cells (in words) (Vero cells): both acute and chronic cytotoxicity
CC50 (in vitro [1]): > 50 µM
CC50 (in vitro [2]): > 50 µM

O=S(=O)(c1cccnc1)N(C1=NOC2(CCCCCCC2)C1)S(=O)(=O)c1cccnc1 [4l, N-(Pyridin-3-ylsulfonyl)-N-(1-oxa-2-azaspiro[4.7]dodec-2-en-3-yl)pyridine-3-sulfonamide]
EC50 (TBEV): 15 ± 4 µM
EC50 (WNV): 8 ± 4 µM
melting point: 151 to 152 °C
CC50 (in vitro [1]): > 50 µM
CC50 (in vitro [3]): > 50 µM
CC50 (in vitro [4]): > 50 µM
CC50 (in vitro [2]): > 50 µM

O=S(=O)(c1ccc(F)cc1F)N(C1=NOC2CCCCCCC12)S(=O)(=O)c1ccc(F)cc1F (stereo not shown) [5g, N-((2,4-difluorophenyl)sulfonyl)-2,4-difluoro-N-(3a,4,5,6,7,8,9,9a-octahydrocycloocta[d]isoxazol-3-yl)benzenesulfonamide]
EC50 (TBEV): 33 ± 15 µM
EC50 (WNV): 12 ± 6 µM
melting point: 129 to 131 °C
CC50 (in vitro [1]): > 50 µM
CC50 (in vitro [3]): > 50 µM
CC50 (in vitro [4]): > 50 µM
CC50 (in vitro [2]): > 50 µM

Cc1cc(C)c(S(=O)(=O)N(C2=NOC3CCCCCCC23)S(=O)(=O)c2c(C)cc(C)cc2C)c(C)c1 (stereo not shown) [5e, N-(Mesitylsulfonyl)-2,4,6-trimethyl-N-(3a,4,5,6,7,8,9,9a-octahydrocycloocta[d]isoxazol-3-yl)benzenesulfonamide]
EC50 (TBEV): 10 ± 5 µM
EC50 (WNV): 4 ± 0.6 µM
melting point: 148 to 149 °C
CC50 (in vitro [1]): > 50 µM
CC50 (in vitro [3]): > 50 µM
CC50 (in vitro [4]): > 50 µM
CC50 (in vitro [2]): > 50 µM

O=S(=O)(c1ccc2ccccc2c1)N(C1=NOC2CCCCCCC12)S(=O)(=O)c1ccc2ccccc2c1 (stereo not shown) [5j, N-(Naphthalen-2-ylsulfonyl)-N-(3a,4,5,6,7,8,9,9a-octahydrocycloocta[d]isoxazol-3-yl)naphthalene-2-sulfonamide]
EC50 (TBEV): 10 ± 2.4 µM
EC50 (WNV): 5.9 ± 1.8 µM
melting point: 160 to 162 °C
CC50 (in vitro [1]): > 50 µM
CC50 (in vitro [3]): > 50 µM
CC50 (in vitro [4]): > 50 µM
CC50 (in vitro [2]): > 50 µM

O=[N+]([O-])c1ccc(S(=O)(=O)N(C2=NOC3CCCCCCC23)S(=O)(=O)c2ccc([N+](=O)[O-])cc2)cc1 (stereo not shown) [5i, 4-Nitro-N-((4-nitrophenyl)sulfonyl)-N-(3a,4,5,6,7,8,9,9a-octahydrocycloocta[d]isoxazol-3-yl)benzenesulfonamide]
EC50 (TBEV): 19 ± 4 µM
EC50 (WNV): 19 ± 11 µM
melting point: 139 to 140 °C
cytotoxicity against PEK cells during 7 days of incubation (in words) (PEK cells): slightly toxic
CC50 (in vitro [1]): 41 ± 1.8 µM
CC50 (in vitro [3]): > 50 µM
CC50 (in vitro [4]): > 50 µM
CC50 (in vitro [2]): > 50 µM

O=S(=O)(c1cccs1)N(C1=NOC2CCCCCCC12)S(=O)(=O)c1cccs1 (stereo not shown) [5k, N-(3a,4,5,6,7,8,9,9a-Octahydrocycloocta[d]isoxazol-3-yl)-N-(thiophen-2-ylsulfonyl)thiophene-2-sulfonamide]
EC50 (TBEV): 20 ± 3 µM
EC50 (WNV): 18 ± 4 µM
melting point: 131 to 132 °C
acute and chronic cytotoxicity in Vero cells (in words) (Vero cells): both acute and chronic cytotoxicity
CC50 (in vitro [1]): > 50 µM
CC50 (in vitro [2]): > 50 µM

O=S(=O)(c1ccc2c(c1)OCCO2)N(C1=NOC2CCCCCCC12)S(=O)(=O)c1ccc2c(c1)OCCO2 (stereo not shown) [5f, N-((2,3-Dihydrobenzo[b][1, 4]dioxin-6-yl)sulfonyl)-N-(3a,4,5,6,7,8,9,9a-octahydrocycloocta[d]isoxazol-3-yl)-2,3-dihydrobenzo[b][1, 4]dioxine-6-sulfonamide]
EC50 (TBEV): 29 ± 7 µM
EC50 (WNV): 16 ± 10 µM
melting point: 129 to 130 °C
CC50 (in vitro [1]): > 50 µM
CC50 (in vitro [3]): > 50 µM
CC50 (in vitro [4]): > 50 µM
CC50 (in vitro [2]): > 50 µM

O=S(=O)(c1ccc2c(c1)OCCO2)N(C1=NOC2(CCCCCCC2)C1)S(=O)(=O)c1ccc2c(c1)OCCO2 [4f, N-((2,3-Dihydrobenzo[b][1, 4]dioxin-6-yl)sulfonyl)-N-(1-oxa-2-azaspiro[4.7]dodec-2-en-3-yl)-2,3-dihydrobenzo[b][1, 4]dioxine-6-sulfonamide]
EC50 (TBEV): 13 ± 6 µM
EC50 (WNV): 7.1 ± 1 µM
melting point: 191 to 193 °C
CC50 (in vitro [1]): > 50 µM
CC50 (in vitro [3]): > 50 µM
CC50 (in vitro [4]): > 50 µM
CC50 (in vitro [2]): > 50 µM

O=S(=O)(Cc1ccccc1)N(C1=NOC2(CCCCCCC2)C1)S(=O)(=O)Cc1ccccc1 [4b, N-(Benzylsulfonyl)-1-phenyl-N-(1-oxa-2-azaspiro[4.7]dodec-2-en-3-yl)methanesulfonamide]
EC50 (TBEV): > 50 µM
EC50 (WNV): 16 ± 8 µM
melting point: 176 to 177 °C
CC50 (in vitro [1]): > 50 µM
CC50 (in vitro [3]): > 50 µM
CC50 (in vitro [4]): > 50 µM
CC50 (in vitro [2]): > 50 µM

O=S(=O)(Cc1ccccc1)NC1=NOC2(CCCCCCC2)C1 [3b]
EC50 (TBEV): 13 ± 8 µM
EC50 (WNV): 9.9 ± 1.5 µM
EC50 (YFV): 24 ± 11 µM
CC50 (in vitro [1]): > 50 µM
CC50 (in vitro [3]): > 50 µM
CC50 (in vitro [4]): > 50 µM
CC50 (in vitro [2]): > 50 µM

Cc1ccc(S(=O)(=O)N(C2=NOC3CCCCCCC23)S(=O)(=O)c2ccc(C)cc2)cc1 (stereo not shown) [5d, 4-Methyl-N-(3a,4,5,6,7,8,9,9a-octahydrocycloocta[d]isoxazol-3-yl)-N-tosylbenzenesulfonamide]
EC50 (TBEV): 34 ± 4 µM
EC50 (WNV): 14 ± 8 µM
melting point: 113 to 114 °C
CC50 (in vitro [1]): > 50 µM
CC50 (in vitro [3]): > 50 µM
CC50 (in vitro [4]): > 50 µM
CC50 (in vitro [2]): > 50 µM
